Measured values: patent publication US8003630B2, “Combinatorial therapies for the treatment of neoplasias using the opioid growth factor receptor” (The Penn State Research Foundation, priority 2004, dated 2011)
Marks after values point to notes of the source that are not given here.

How the values were obtained:
[1] = tested on: CAL-27 cells; test: Cell proliferation assay of CAL-27 cells; format: cell-based, human; conditions: 48 hr; for fewer cells than in control cultures: OGF 10^−6 M and/or paclitaxel 10^−10 M
Method: The UM-SCC-1 cell line (SCC-1) was derived from a well-differentiated recurrent squamous cell carcinoma in the floor of the mouth of a person (25). This cell line was obtained from The University of Michigan, Cancer Research Laboratory (Thomas E. Carey, Ph.D., Director). CAL-27 human squamous cell carcinoma cell line, derived from a poorly differentiated carcinoma of the tongue in a person ([…]), was obtained from the American Type Culture Collection (Manassas, Va.). Both cell lines were grown in Dulbecco's MEM (modified) media supplemented with 10% fetal calf serum, 1.2% sodium bicarbonate, and antibiotics (5,000 Units/ml penicillin, 5 mg/ml streptomycin, 10 mg/ml neomycin). The cell cultures were maintained in a humidified atmosphere of 7% CO2/93% air at 37° C.
Cells were seeded at equivalent amounts into either 6-well or 96-well plates (Falcon) and counted 24 hr later to determine plating efficiency.
(§1) Cell number was recorded either by using the MTS proliferation bioassay (Cell Titer 96 One Solution, Promega, Madison, Wis.) and measuring absorbency after 4 hr on a Biorad (Model 3550) plate reader at 490 nm with a 750 nm background absorbance screening, or by directly counting cells. The MTS assay utilized 10 wells/treatment. For manual counts, cells were harvested by trypsinization with 0.25% trypsin/0.53 mM EDTA, centrif uiged, and counted with a hemacytometer. Cell viability was determined by trypan blue staining. At least two aliquots per well, and 4-10 wells/treatment, were counted at each time for manual counting.

[2] = tested on: SCC-1 cells; test: SCC-1 xenograft in nude mice, tumor growth, survival, termination day measurements (Example 9); conditions: for latency time to develop visible tumors: controls 7 days; for Incidence of measurable tumor (day 17) / Incidence of measurable tumor (day 13): mice with tumor/N; for Incidence of measurable tumor (day 13): OGF 10 mg/kg daily and/or paclitaxel 8 mg/kg every other day i.p.; for Metastases: spleen, liver, lymph nodes
Text: Male 4 week old nu/nu nude mice purchased from Harlan Laboratories (Indianapolis, Ind.) were housed in pathogen-free isolators in the Department of Comparative Medicine at the Penn State University College of Medicine. All procedures were approved by the IACUC committee of the Penn State University College of Medicine and conformed to the guidelines established by NIH. Mice were allowed 48 hr to acclimate prior to beginning experimentation.
Tumor cells were inoculated into nude mice by subcutaneous injection into the right scapular region. Subcutaneous injections were performed with at least 2×10^6 cells per mouse; mice were not anesthetized for this procedure.
Dosages were selected based on published reports. […] Injections of drugs were initiated 1 hr after tumor cell inoculation. […] Mice were weighed weekly to determine drug dosage.
Mice were observed daily for the presence of tumors. The latency for a visible tumor to appear, and the time until tumors were measurable (i.e., 62.5 mm^3), were recorded. Tumors were measured using calipers every day. Tumor volume was calculated using the formula w^2×1×π/6, where the length is the longest dimension, and width is the dimension perpendicular to length.
According to institutional policies and IACUC guidelines, mice were terminated when tumors became ulcerated, or tumors grew to 2 cm in diameter. […] Tumors and spleens were removed and weighed, and the lymph nodes, liver, and spleen examined for metastases.

[3] = tested on: SCC-1 cells; test: Necrosis, trypan blue positivity of SCC-1 cells; format: cell-based, human; conditions: SCC-1 cultures or supernatants
Method: as §1

[4] = tested on: SCC-1 SCCHN cells; conditions: athymic nude, mouse, in vivo
Method: (§4) Tumor dimensions were recorded every day beginning on the day that the tumors were considered measurable.

[5] = tested on: SCC-1 SCCHN cells; test: SCC-1 SCCHN tumors in athymic nude mice (Examples 1c and 2)
Method: as §4

[6] = tested on: MIA PaCa-2 cells; test: Growth assays of MIA PaCa-2 cells (MTS assay or cell counting), Example 7; format: cell-based, human; conditions: MIA PaCa-2; 96 hr (48 hr after reversal)
Method: (§2) MIA PaCa-2 and PANC-1 human pancreatic adenocarcinoma cell lines were purchased from the American Type Culture Collection (Manasass, Va.). MIA PaCa-2 cells were derived from an undifferentiated epithelial carcinoma occurring in the body and tail of the pancreas in a person. The PANC-1 cells were derived from an undifferentiated carcinoma from the head of the pancreas in a person. MIA PaCa-2 and PANC-1 cells were grown in Dulbecco's MEM (modified) media; media was supplemented with 10% fetal calf serum, 1.2% sodium bicarbonate, and antibiotics (5,000 Units/ml penicillin, 5 mg/ml streptomycin, 10 mg/ml neomycin), and the cells were maintained in a humidified atmosphere of 7% CO2/93% air at 37° C.
MIA PaCa-2 cells were seeded at equivalent amounts into either 75 cm^2 flasks, 6-well plates, or 96-well plates (Falcon) and counted 24 hr later to determine plating efficiency. Growth assays for PANC-1 cells were conducted in 6-well plates (Falcon). Compounds or sterile water were added beginning 24 hr after seeding (=0 hr), and both media and compounds were replaced daily. All drugs were prepared in sterile water and dilutions represent final concentrations of the compounds.
(§3) Cell number was recorded either by using a mitogenic bioassay, the MTS assay (Cell Titer 96 One Solution, Promega, Madison, Wis.), and measuring absorbency after 4 hr on a Biorad (Model 3550) plate reader at 490 nm, or by counting cells. For manual counts, cells were harvested with a solution of 0.25% trypsin/0.53 mM EDTA, centrif uiged, and counted with a hemacytometer. Cell viability was determined by trypan blue staining. At least two aliquots per flask or 4-10 wells/treatment were counted at each time.

[7] = tested on: MiaPaCa-2 cells; test: Growth curves of MiaPaCa-2 cells, cell proliferation (MTT) assay, absorbency; conditions: MiaPaCa-2, 5-FU 10^-5 M and/or OGF 10^−6 M
Text: Cells were counted using a standard MTT assay. In general, each data point represents the average absorbency taken from 10 wells/treatment; error bars represent the S.E.M.

[8] = tested on: advanced unresectable pancreatic adenocarcinoma; conditions: some patients; cited from earlier work
[9] = tested on: MiaPaCa-2 cells; test: Gemcitabine and OGF cell cycle phase analysis by flow cytometry; format: cell-based, human; conditions: 2 to 24 hours after OGF exposure
Method: To investigate the exact cell cycle phase where gemcitabine and/or OGF exerted their effects, flow cytometry was performed.

[10] = tested on: MiaPaCa-2 cells; test: OGF/gemcitabine treatment in athymic nude mouse model (Example 5); format: in vivo, athymic nude mice
Text: To examine the effectiveness of the combined OGF/gemcitabine treatments in vivo, an athymic nude mouse model was used.

[11] = tested on: PANC-1 cells; test: Growth assay of PANC-1 cells in 6-well plates; format: cell-based, human; conditions: 72 hr, OGF 10^−6 M and/or gemcitabine 10^−8 M
Method: as §2
MIA PaCa-2 cells were seeded at equivalent amounts into either 75 cm^2 flasks, 6-well plates, or 96-well plates (Falcon) and counted 24 hr later to determine plating efficiency. […]
as §3

[12] = day 50 (paclitaxel group: day each mouse died), means ± SEM

Molecule: CC(=O)O[C@H]1C(=O)[C@@]2(C)[C@H]([C@H](OC(=O)c3ccccc3)[C@]3(O)C[C@H](OC(=O)[C@H](O)[C@@H](NC(=O)c4ccccc4)c4ccccc4)C(C)=C1C3(C)C)[C@]1(OC(C)=O)CO[C@@H]1C[C@@H]2O [paclitaxel]
- fewer cells than in control cultures [1]: 35%
- growth depressed from control levels ([1]; paclitaxel 10^−7 M): 66%
- growth depressed from control levels ([1]; paclitaxel 10^−8 M): 53%
- growth depressed from control levels ([1]; paclitaxel 10^−9 M): 44%
- growth depressed from control levels ([1]; paclitaxel 10^−10 M): 22%
- deaths during the experimental period ([2]; 50 days): only one mouse in this group was alive
- latency time to develop visible tumors [2]: comparable
- mice with measurable tumors ([2]; day 13): 66%
- mice with measurable tumors ([2]; day 17): 83%
- Body Weight, g [2, 12]: 22.6 ± 0.8***+++^^^ g
- Spleen Weight [2, 12]: 243 ± 8 mg
- mice that had died by day 40 ([2]; male, nu/nu nude, mouse, in vivo, 8 mg/kg, 40 day): 75%
- time within which mice began dying ([2]; male, nu/nu nude, mouse, in vivo, 50 days): ≤ 20 days
- Latency to measurable tumor ([2]; means ± SEM): 14.8 ± 1.7 days
- Latency to visible tumor ([2]; means ± SEM): 7.4 ± 1.4 days
- Incidence of measurable tumor (day 17) [2]: 10/12
- Incidence of measurable tumor (day 13) [2]: 8/12
- body weight subnormal by ([2]; mouse, in vivo): 9-10%
- gross observations and pathological findings ([2]; mouse, in vivo): distended abdomens, impacted bowel, and severe body weight loss
- Metastases [2]: none
- necrosis, number of trypan blue positive cells versus control [3]: No differences in necrosis
- mice still alive on termination day, % of the group ([4]; 50 day): 8%
- day on which mice began dying ([4]; 50 days): 19 days
- average life span ([5]; 50-day study): 34.3 ± 3.1 days
- mice with tumors ([5]; day 13 after tumor cell inoculation): 66%
- observations on organs after premature death ([5]; histological analysis): distended abdomens with associated megacolon
- mice that had died by day 40 ([5]; nude mice with SCC-1 tumors): 75%
- body weight less than controls ([5]; nude mice with SCC-1 tumors, day 20): 11%
- body weight less than controls, OGF and paclitaxel/OGF treated mice ([5]; nude mice with SCC-1 tumors, day 50): 28%

Molecule: [Met^5]-enkephalin [OGF]
- fewer cells than in control cultures [1]: 25%
- latency time to develop visible tumors [2]: 11 days
- mice with measurable tumors ([2]; day 13): 33%
- mice with measurable tumors ([2]; day 17): 66%
- tumor volume reduction from control values ([2]; day 50): 33%
- Tumor Volume, mm^3 ([2]; day 50, means ± SEM): 2590 ± 364* mm^3
- Tumor Weight ([2]; day 50, means ± SEM): 1.7 ± 0.2 g
- Latency to measurable tumor (days) ([2]; means ± SEM): 17.0 ± 1.5^ days
- Latency to visible tumor (days) ([2]; means ± SEM): 11.2 ± 1.5^b days
- Incidence of measurable tumor (day 17) [2]: 8/12
- Incidence of measurable tumor (day 13) [2]: 4/12^a
- delay of visible tumors versus controls ([2]; p<0.02): four-day delay
- Metastases [2]: none
- weights of tumors reduced from control levels ([2]; termination day (day 50)): 29%
- difference in cell number between reversal group and group continuing drug exposure [6]: 16%
- decrease in cell number from controls ([7]; 24 h): 7.1%
- decrease in cell number from controls ([7]; 48 h): 7.0%
- decrease in cell number from controls ([7]; 72 h): 6.9%
- decrease in cell number from controls ([7]; 96 h): 14.2%
- longest survival of patients [8]: ≤ 23 months
- increase of cells in the G0/G1 phase of the cell cycle [9]: no significant increases into the G0/G1 phase
- latency time for measurable (62.5 mm^3) tumors ([5]; after tumor cell inoculation): ≤ 17 days
- latency to a visible tumor ([5]; after tumor cell inoculation): ≤ 11 days
- reduction of tumor size versus control mice ([5]; second timepoint (4th day of measurable tumors)): 26%
- delay in visible tumor development ([5]; versus control mice): ~4 days
- mice with tumors ([10]; day 16 after tumor cell inoculation): all mice
- tumors smaller than control mice, reduction ([10]; from the 6th timepoint (12th day of measurable tumor)): 29.9-40.7%
- fewer cells than in control cultures [11]: 31%
